Here are results for 1 cell line from the supplement of paper PMC10307832.

What all share (assay): relative viability (nuclei count vs DMSO), 5 days (fraction); higher = more cells survive
Compound in the assay “QS11 + Tozasertib”: C1CC2=C(C1)C=C(C=C2)OC3=NC(=C4C(=N3)N(C=N4)CC5=CC=C(C=C5)C6=CC=CC=C6)N[C@@H](CC7=CC=CC=C7)CO [QS11] + Cc1cc(Nc2cc(N3CCN(C)CC3)nc(Sc3ccc(NC(=O)C4CC4)cc3)n2)n[nH]1 [Tozasertib] (partner 0.1 µM)
The procedure, abridged: (§1)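 Relative viability is defined as nuclei in treated wells over nuclei in vehicle wells. Duplicate plates were run and medians reported. Lung cancer cell lines in 1536-well plates were dosed by pin tool one day after seeding, with one drug or with a fixed anchor-drug dose plus five library-drug doses (not always all listed) in √10 steps, and nuclei were counted after 5 days.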

Compound in the assay “AZ628 + Bortezomib”: CC1=C(C=C(C=C1)NC(=O)C2=CC(=CC=C2)C(C)(C)C#N)NC3=CC4=C(C=C3)N=CN(C4=O)C [AZ628] + CC(C)C[C@H](NC(=O)[C@H](Cc1ccccc1)NC(=O)c1cnccn1)B(O)O [Bortezomib] (partner 0.002 µM)
Summed up:
as §1

Compound in the assay “Darinaparsin + Foretinib”: C[As](C)SC[C@H](NC(=O)CC[C@H](N)C(=O)O)C(=O)NCC(=O)O [Darinaparsin] + COc1cc2c(Oc3ccc(NC(=O)C4(C(=O)Nc5ccc(F)cc5)CC4)cc3F)ccnc2cc1OCCCN1CCOCC1 [Foretinib] (partner 0.25 µM)
Summed up:
as §1

Compound in the assay “AZ628 + Vorinostat”: CC1=C(C=C(C=C1)NC(=O)C2=CC(=CC=C2)C(C)(C)C#N)NC3=CC4=C(C=C3)N=CN(C4=O)C [AZ628] + O=C(CCCCCCC(=O)Nc1ccccc1)NO [Vorinostat] (partner 1 µM)
The procedure, abridged:
as §1

With LCLC-97TM1, the relative viability in the assay with QS11 + Tozasertib (first compound 0.08 µM) was found to be 0.2; with QS11 + Tozasertib (first compound 0.253 µM) it was 0.242; with QS11 + Tozasertib (first compound 2.53 µM) it was 0.199; with QS11 + Tozasertib (first compound 8 µM), 0.146; with AZ628 + Bortezomib (first compound 0.08 µM) it was 0.643; in the assay with AZ628 + Bortezomib (first compound 0.253 µM) it was 0.381. For the same cell line, the relative viability with AZ628 + Bortezomib (first compound 0.8 µM) was found to be 0.199; in the assay with AZ628 + Bortezomib (first compound 2.53 µM) it was 0.522; with AZ628 + Bortezomib (first compound 8 µM) it was 0.108; with Darinaparsin + Foretinib (first compound 0.08 µM) it was 0.981; in the assay with Darinaparsin + Foretinib (first compound 0.8 µM) it was 0.882; in the assay with Darinaparsin + Foretinib (first compound 2.53 µM), 0.824. The relative viability with Darinaparsin + Foretinib (first compound 8 µM) stood at 1.04; with AZ628 + Vorinostat (first compound 0.08 µM), 1.03; with AZ628 + Vorinostat (first compound 0.253 µM) it was 0.729; with AZ628 + Vorinostat (first compound 0.8 µM), 0.82; with AZ628 + Vorinostat (first compound 2.53 µM) it was 0.756; in the assay with AZ628 + Vorinostat (first compound 8 µM), 0.13.
